Results reported in patent US11339130B1 (Blade Therapeutics, Inc., priority 2016, dated 2022).

Key:
[1] = system: Calpain activity in SH-SY5Y cells (SBDP-150); experiment: SH-SY5Y Spectrin western blot assay (SBDP-150 breakdown product, A23187-induced); format: cell-based; details: Homo sapiens; SH-SY5Y cells, A23187-induced SBDP-150, western blot; read-out: SH-SY5Y Spectrin IC50
[2] = molecular target: T1, Human Calpain 1/NS1 (Homo sapiens, UniProt P07384); experiment: Calpain inhibition continuous fluorescence (FRET) assay, Human Calpain 1/NS1; format: biochemical; details: read-out: Human Calpain 1/NS1 IC50
T1 sequence (P07384 1-714): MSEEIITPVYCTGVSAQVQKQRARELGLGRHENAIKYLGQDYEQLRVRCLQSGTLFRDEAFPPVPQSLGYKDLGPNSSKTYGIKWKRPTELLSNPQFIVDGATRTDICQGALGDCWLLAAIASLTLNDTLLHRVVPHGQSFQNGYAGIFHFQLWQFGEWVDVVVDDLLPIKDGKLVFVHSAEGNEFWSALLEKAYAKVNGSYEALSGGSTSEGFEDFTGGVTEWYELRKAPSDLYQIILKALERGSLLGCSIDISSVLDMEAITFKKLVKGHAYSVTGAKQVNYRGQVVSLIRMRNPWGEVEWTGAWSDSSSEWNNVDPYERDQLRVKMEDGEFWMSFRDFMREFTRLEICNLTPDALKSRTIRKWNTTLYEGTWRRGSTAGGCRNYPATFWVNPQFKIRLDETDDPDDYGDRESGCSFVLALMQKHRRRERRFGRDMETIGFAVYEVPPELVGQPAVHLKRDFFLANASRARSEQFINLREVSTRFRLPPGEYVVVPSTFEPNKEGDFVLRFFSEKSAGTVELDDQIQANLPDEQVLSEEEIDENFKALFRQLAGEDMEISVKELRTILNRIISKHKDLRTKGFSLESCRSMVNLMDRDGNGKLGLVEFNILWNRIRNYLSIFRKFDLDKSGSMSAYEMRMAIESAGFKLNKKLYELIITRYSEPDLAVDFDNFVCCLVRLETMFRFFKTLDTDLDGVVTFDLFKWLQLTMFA
T1 sequence (P04632 1-268 partner): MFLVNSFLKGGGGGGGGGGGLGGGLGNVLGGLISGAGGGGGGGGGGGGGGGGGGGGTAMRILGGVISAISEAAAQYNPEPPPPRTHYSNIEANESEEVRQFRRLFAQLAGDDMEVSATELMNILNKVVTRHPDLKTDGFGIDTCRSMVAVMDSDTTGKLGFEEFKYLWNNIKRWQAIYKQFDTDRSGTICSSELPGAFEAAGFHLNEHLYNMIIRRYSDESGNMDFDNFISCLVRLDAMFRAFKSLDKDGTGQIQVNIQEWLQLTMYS
Outline: (§1)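 Inhibitors were preincubated with calpain in 50 mM Tris pH 7.5, 100 mM NaCl, 1 mM DTT at 25C. Reactions were started with 5-FAM/QXL 520 FRET peptide substrate plus CaCl2 and read at 490/520 nm for 10 min. IC50s came from 4-parameter fits of slope rates (1-5 min).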

[3] = system: Calpain activity in SH-SY5Y cells; experiment: SH-SY5Y + AMC fluorescence assay (Suc-LLVY-AMC substrate); format: cell-based; details: read-out: SH-SY5Y + AMC IC50
[4] = molecular target: T2, Human Calpain 9/NS1 (Homo sapiens, UniProt O14815); experiment: Calpain inhibition continuous fluorescence (FRET) assay, Human Calpain 9/NS1; format: biochemical; details: read-out: Human Calpain 9/NS1 IC50
T2 sequence (O14815 1-690): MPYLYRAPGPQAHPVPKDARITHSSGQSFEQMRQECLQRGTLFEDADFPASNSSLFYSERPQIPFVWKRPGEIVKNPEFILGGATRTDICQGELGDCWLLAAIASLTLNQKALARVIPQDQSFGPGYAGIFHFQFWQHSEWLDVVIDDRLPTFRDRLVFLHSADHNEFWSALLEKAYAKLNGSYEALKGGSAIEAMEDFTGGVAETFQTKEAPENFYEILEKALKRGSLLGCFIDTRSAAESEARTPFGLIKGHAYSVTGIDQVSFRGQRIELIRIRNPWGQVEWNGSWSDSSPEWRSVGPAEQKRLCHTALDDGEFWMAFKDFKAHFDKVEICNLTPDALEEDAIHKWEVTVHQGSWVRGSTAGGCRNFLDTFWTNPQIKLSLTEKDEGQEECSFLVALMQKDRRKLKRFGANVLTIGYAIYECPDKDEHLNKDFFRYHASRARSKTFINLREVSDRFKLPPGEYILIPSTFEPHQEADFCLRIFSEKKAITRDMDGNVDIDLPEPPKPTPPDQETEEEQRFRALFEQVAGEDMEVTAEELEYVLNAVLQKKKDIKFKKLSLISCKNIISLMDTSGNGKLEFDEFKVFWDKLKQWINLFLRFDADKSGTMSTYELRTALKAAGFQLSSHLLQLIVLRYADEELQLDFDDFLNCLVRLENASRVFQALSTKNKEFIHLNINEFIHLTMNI
T2 sequence (P04632 1-268 partner): T1 sequence (P04632 1-268 partner)
Outline: as §1

[5] = molecular target: T3, Human Calpain 2/NS1 (Homo sapiens, UniProt P17655); experiment: Calpain inhibition continuous fluorescence (FRET) assay, Human Calpain 2/NS1; format: biochemical; details: read-out: Human Calpain 2/NS1 IC50
T3 sequence (P17655 1-700): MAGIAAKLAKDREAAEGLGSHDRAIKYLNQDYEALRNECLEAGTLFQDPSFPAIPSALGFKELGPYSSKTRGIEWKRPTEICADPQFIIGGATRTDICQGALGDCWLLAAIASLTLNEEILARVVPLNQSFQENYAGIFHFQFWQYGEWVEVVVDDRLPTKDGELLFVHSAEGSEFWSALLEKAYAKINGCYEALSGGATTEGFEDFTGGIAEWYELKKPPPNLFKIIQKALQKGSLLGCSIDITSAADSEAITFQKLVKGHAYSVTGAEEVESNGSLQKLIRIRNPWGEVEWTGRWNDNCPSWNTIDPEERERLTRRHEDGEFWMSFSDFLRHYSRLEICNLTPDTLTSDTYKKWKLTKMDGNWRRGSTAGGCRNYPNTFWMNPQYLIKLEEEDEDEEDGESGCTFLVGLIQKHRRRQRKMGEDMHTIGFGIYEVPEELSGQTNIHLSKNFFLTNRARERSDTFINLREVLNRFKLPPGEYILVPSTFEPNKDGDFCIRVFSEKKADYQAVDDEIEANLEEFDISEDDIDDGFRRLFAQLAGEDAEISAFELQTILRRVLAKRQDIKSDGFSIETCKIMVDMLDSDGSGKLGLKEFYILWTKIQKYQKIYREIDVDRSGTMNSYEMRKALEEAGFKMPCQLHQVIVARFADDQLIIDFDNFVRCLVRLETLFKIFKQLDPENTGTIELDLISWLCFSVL
T3 sequence (P04632 1-268 partner): T1 sequence (P04632 1-268 partner)
Outline: as §1

IC50 [1] [µM] | IC50 [2] [µM] | IC50 [3] [µM] | IC50 [4] [µM] | IC50 [5] [µM] | Structure (SMILES)
< 10 | < 3 | < 10 | < 3 | < 3 | NC(=O)C(=O)C(Cc1ccccc1)NC(=O)c1nsnc1-c1ccncc1 (stereo not drawn) [Compound 371, N-(4-amino-3,4-dioxo-1-phenylbutan-2-yl)-4-(pyridin-4-yl)-1,2,5-thiadiazole-3-carboxamide]
< 10 | < 3 | < 10 | < 3 | < 3 | NC(=O)C(=O)C(Cc1ccccc1)NC(=O)c1nsnc1-c1cccc(F)c1F (stereo not drawn) [Compound 372, N-(4-amino-3,4-dioxo-1-phenylbutan-2-yl)-4-(2,3-difluorophenyl)-1,2,5-thiadiazole-3-carboxamide]
< 10 | < 3 | < 10 | < 3 | < 3 | NC(=O)C(=O)C(Cc1ccccc1)NC(=O)c1nsnc1-c1ccccn1 (stereo not drawn) [Compound 373, N-(4-amino-3,4-dioxo-1-phenylbutan-2-yl)-4-(pyridin-2-yl)-1,2,5-thiadiazole-3-carboxamide]
< 10 | < 3 | < 10 | < 3 | < 3 | NC(=O)C(=O)C(Cc1ccccc1)NC(=O)c1nsnc1-c1ccncn1 (stereo not drawn) [Compound 374, N-(4-amino-3,4-dioxo-1-phenylbutan-2-yl)-4-(pyrimidin-4-yl)-1,2,5-thiadiazole-3-carboxamide]
< 10 | < 3 | < 10 | < 3 | < 3 | Cc1c(F)cccc1-c1nsnc1C(=O)NC(Cc1ccccc1)C(=O)C(N)=O (stereo not drawn) [Compound 375, N-(4-amino-3,4-dioxo-1-phenylbutan-2-yl)-4-(3-fluoro-2-methylphenyl)-1,2,5-thiadiazole-3-carboxamide]
< 10 | < 3 | < 10 | < 3 | < 3 | NC(=O)C(=O)[C@H](Cc1ccccc1)NC(=O)c1nsnc1-c1ccccc1 [Compound 376, (S)—N-(4-amino-3,4-dioxo-1-phenylbutan-2-yl)-4-phenyl-1,2,5-thiadiazole-3-carboxamide]
< 10 | < 3 | 10 to 25 | < 3 | < 3 | NC(=O)C(=O)C(Cc1ccccc1)NC(=O)c1nsnc1-c1cccnc1 (stereo not drawn) [Compound 377, N-(4-amino-3,4-dioxo-1-phenylbutan-2-yl)-4-(pyridin-3-yl)-1,2,5-thiadiazole-3-carboxamide]
< 10 | < 3 | > 25 | < 3 | < 3 | NC(=O)C(=O)C(Cc1ccccc1)NC(=O)c1nsnc1-c1ccc2c(c1)C(=O)N(Cc1ccccc1)C2 (stereo not drawn) [Compound 378, N-(4-amino-3,4-dioxo-1-phenylbutan-2-yl)-4-(2-benzyl-3-oxoisoindolin-5-yl)-1,2,5-thiadiazole-3-carboxamide]
< 10 | < 3 | < 10 | < 3 | < 3 | NC(=O)C(=O)[C@@H](Cc1ccccc1)NC(=O)c1cn(C(F)F)nc1-c1ccccc1 [Compound 380, (R)—N-(4-amino-3,4-dioxo-1-phenylbutan-2-yl)-1-(difluoromethyl)-3-phenyl-1H-pyrazole-4-carboxamide]
< 10 | < 3 | < 10 | < 3 | < 3 | NC(=O)C(=O)C(Cc1ccccc1)NC(=O)c1cn(C(F)F)nc1-c1cccc(F)c1 (stereo not drawn) [Compound 381, N-(4-amino-3,4-dioxo-1-phenylbutan-2-yl)-1-(difluoromethyl)-3-(3-fluorophenyl)-1H-pyrazole-4-carboxamide]
10 to 25 | < 3 | < 10 | < 3 | < 3 | Cc1ccccc1-c1nn(C(F)F)cc1C(=O)NC(Cc1ccccc1)C(=O)C(N)=O (stereo not drawn) [Compound 382, N-(4-amino-3,4-dioxo-1-phenylbutan-2-yl)-1-(difluoromethyl)-3-(o-tolyl)-1H-pyrazole-4-carboxamide]
< 10 | < 3 | < 10 | < 3 | < 3 | NC(=O)C(=O)C(Cc1ccccc1)NC(=O)c1cn(C(F)F)nc1-c1ccccc1F (stereo not drawn) [Compound 383, N-(4-amino-3,4-dioxo-1-phenylbutan-2-yl)-1-(difluoromethyl)-3-(2-fluorophenyl)-1H-pyrazole-4-carboxamide]
< 10 | < 3 | < 10 | < 3 | < 3 | COc1cccc(-c2nn(C(F)F)cc2C(=O)NC(Cc2ccccc2)C(=O)C(N)=O)c1 (stereo not drawn) [Compound 384, N-(4-amino-3,4-dioxo-1-phenylbutan-2-yl)-1-(difluoromethyl)-3-(3-methoxyphenyl)-1H-pyrazole-4-carboxamide]
< 10 | < 3 | > 25 | < 3 | < 3 | COc1ccc(C[C@H](NC(=O)c2oc(C)nc2-c2ccccc2)C(=O)C(N)=O)cc1 [Compound 385, (S)—N-(4-amino-1-(4-methoxyphenyl)-3,4-dioxobutan-2-yl)-2-methyl-4-phenyloxazole-5-carboxamide]
> 25 | < 3 | 10 to 25 | < 3 | < 3 | Cc1nc(-c2ccccc2)c(C(=O)N[C@@H](CCc2ccccc2)C(=O)C(N)=O)o1 [Compound 386, (S)—N-(1-amino-1,2-dioxo-5-phenylpentan-3-yl)-2-methyl-4-phenyloxazole-5-carboxamide]
